In general, melting point refers to the temperature, or range, at which the solid turns liquid. On to `CCOC(=O)C(C#N)=C(SC)N1CCc2ccccc2CC1`, for which the melting point was 88 to 93 °C.

The compound `CCCCn1nc(C)c(C(=O)O)c1Cc1ccc(-c2ccccc2S(=O)(=O)NC(=O)OC(C)(C)C)cc1` returned a melting point of 92 to 96 °C.

As to `COC(=O)c1cc(Cl)ccc1NC(=O)N(C)C`, the melting point was 114 °C.

For `COC(=O)COc1ccc(C(=O)C(C)Br)cc1Cl` (stereo not drawn), the melting point lay in the range of 63 to 65 °C.

For the compound `CC(C)(C)OC(=O)N1CCn2c(Cl)c(-c3cccc(C#N)c3)c(C(=O)O)c2C1`, the melting point fell in the range of 208 to 210 °C.

Turning to `COc1ccc2c(C#N)c(-c3ncc(S(=O)(=O)NC(CF)CF)cn3)n(C3CCC3)c2n1`, the melting point was in the range of 229 to 230 °C.

`NC(=O)CN1C(=O)[C@@H](N)[C@H](c2ccccc2)Sc2cc(Cl)ccc21` (relative stereo) gave a melting point of 225 to 228 °C.

`COc1ccc(C#Cc2ccc(OC)cc2)cc1` returned a melting point of 140 to 142 °C.

Compound `CC(C)N(C(=O)c1cccc2c1CCc1cc(F)ccc1S2)C(C)C` yielded a melting point of 149 to 150 °C.

Take `COc1cccc(-c2c(Cl)c(CN3CCOCC3)nc3sc4c(c23)CCN(Cc2ccccc2)C4)c1OC`: the melting point is 176 to 177 °C.

For the compound `NC(=O)c1cccc(N2CCN(C(=O)c3c(-c4ccccc4)ccn3CC(=O)O)CC2)c1`, the melting point came to 132 °C.

With `O=S(=O)(c1ccccc1)c1ccc(S)cc1`, the melting point turned out to be 117 °C.

The compound `c1ccc(-c2nc3ncccc3[nH]2)nc1` came in with a melting point of 139 to 142 °C.

The compound `CC(=O)Nc1nc2c(s1)-c1nc(-c3ccccc3)ncc1C2` displayed a melting point of over 300 °C.

`CSc1ccc(-c2cnn(Cc3ccccc3)c(=O)c2Br)cc1`: the melting point lay within 115 to 118 °C.

With `O=C(Nc1ccc(Oc2ccc(Cl)cc2)nc1)N1CCc2ccccc2CC1`, the melting point was in the range of 135 to 137 °C.

`O=C(c1cc(Br)cc(Br)c1)c1cc(Br)cc(Br)c1` yielded a melting point of 208 to 209 °C.

As to `CCOC(=O)c1cn(-c2cnnn2C)c2nc(Cl)c(F)cc2c1=O`, the melting point was 251 °C.

As to `O=C1CC(=Cc2c[nH]c3ccccc23)C(=O)N1Cc1cc(C(F)(F)F)cc(C(F)(F)F)c1`, the melting point was 68 to 69 °C.

The compound `CC[C@H](COC)n1cc(Br)nc(N2CCc3cc(Br)cc(Cl)c32)c1=O` had a melting point of 118 °C.

The compound `CC(C)=C1C(=O)Nc2cc3[nH]c(-c4ccncc4)nc3cc21` showed a melting point of over 300 °C.

Regarding `CCOC(=O)Cc1sc(Sc2ccnc(SC)n2)nc1C`, the melting point was in the range of 68 to 72 °C.

In turn, `O=C(Nc1ccccc1)c1nc2ccccc2[nH]1` came in with a melting point of 201 to 202 °C.

The compound `Cc1cccc(C)c1C(=O)NCC(=O)N1c2ccccc2N(Cc2ccccc2)C(=O)[C@H]2CCC[C@H]21` (relative stereo) came in with a melting point of 208 to 209 °C.

Compound `CCCCCCCCC=CCCCCCCCCCCCC(=O)NC(=O)CN` came in with a melting point of 128 to 130 °C.

For the compound `CS(=O)(=O)c1ccc(-c2oc3ccccc3c(=O)c2-c2cccc(Cl)c2)cc1`, the melting point lay within 195 to 196 °C.

The compound `O=C(CC1CCCCC1)NC1CCCCC1` registered a melting point of 164 to 165 °C.

Take `CN(C)c1ccc(C2CCCN2S(=O)(=O)c2ccc(Cl)cc2)cc1F` (racemic): the melting point turned out to be 99 °C.

`Cc1cc(-c2ccc(C(F)(F)F)cc2)nc(-n2cnc(-c3ccc(S(N)(=O)=O)s3)c2)n1` showed a melting point of 277 °C.

For the compound `CCC(CC)(CO)CCCCS(N)(=O)=O`, the melting point is 64 to 65 °C.

`COc1cc(N)c(Cl)cc1C(=O)N[C@H]1CCN(CCCC(=O)c2cccnc2)C[C@H]1OC` (relative stereo) displayed a melting point of 166 °C.

For `CCc1c(-c2ccc(O)cc2)c2cc(C(C)=O)c3ccc(CO)c1n32`, the melting point is 194 to 195 °C.

Turning to `COc1cc(C)c(C(=O)c2c(C(F)(F)F)ccnc2OC)cc1OC`, the melting point is 125 to 127 °C.

Turning to `CN(C1CCCc2ccc([N+](=O)[O-])cc21)S(C)(=O)=O` (stereo not drawn), the melting point is 138 to 140 °C.

`COc1ccc2cc(OCc3ccccc3)c(C(=O)OCc3ccccc3)cc2c1` gave a melting point of 96 to 98 °C.

`CC1(C)C=C(c2cccnc2)c2cc(C#N)ccc2O1`: the melting point fell in the range of 98 to 99 °C.

`CCC(=O)N1Cc2cn[nH]c2-c2cc([N+](=O)[O-])ccc21` had a melting point of 219 to 221 °C.

The compound `Cc1nc(-c2ccccc2)nc(-c2ccccn2)n1` came in with a melting point of 97 °C.

`COc1cc(C)c(C)cc1OC` displayed a melting point of 41 to 42 °C.

For the compound `CCOC(=O)C(NC(=O)Nc1ccccc1Cl)(c1nc(OC)cc(OC)n1)C(C)C` (stereo not drawn), the melting point lay within 84 to 87 °C.

`O=C(O)Cc1ccc(-c2ccc(F)cc2F)c(F)c1` gave a melting point of 145 to 147 °C.

The compound `O=C(O)[C@@H]1C[C@H]2C[C@H](CCS(=O)(=O)O)CC[C@H]2CN1` (racemic) yielded a melting point of 265 °C.

For `CC(C(=O)O)c1ccc(Cc2ccccc2CC(=O)O)cc1` (stereo not drawn), the melting point was in the range of 135 to 137 °C.

As for `CC(C)(C)OC(=O)c1cccc(NC(N)=O)c1`, the melting point was 230 to 232 °C.

Regarding `O=c1c2c(oc3ncccc13)-c1ccccc1CCC2`, the melting point was in the range of 186 to 190 °C.

Consider `CCCCCCCN(CCN1CCN(CCSc2nc3ncccc3o2)CC1)C(=O)Nc1c(C(C)C)cc(O)cc1C(C)C`, for which the melting point fell in the range of 100 to 102 °C.

The compound `COC(=O)c1c(Br)ccc2[nH]ncc12` gave a melting point of 164 to 165 °C.

In the case of `CCN(CC)c1nc(-c2ccc(OC)c(OC)c2)nc2sc(C#N)c(C)c12`, the melting point lay in the range of 159 to 161 °C.

As to `COc1ccc(C(=O)c2ccc(Cl)c(Cl)c2)c(Cl)c1Cl`, the melting point is 113 to 140 °C.

Turning to `CCCCCCCCCCCCCCCCCCOS(=O)(=O)NC(=O)Nc1c(C(C)C)cccc1C(C)C`, the melting point lay within 95 to 98 °C.

The compound `Nc1nc(NCCc2ccc(CCC3CCCCC3)cc2)nc2c1ncn2C1OC(CO)C(O)C1O` (stereo not drawn) had a melting point of 154 to 160 °C.

The compound `O=c1[nH]ncc(Cl)c1NCCCN1CCC(c2noc3cc(F)ccc23)CC1` showed a melting point of 198 to 200 °C.

In turn, `CC(C)=CCC(O)C(C)C1CC=C2C3=C(CCC21C)C1(C)CCC(O)C(C)(C)C1CC3` (stereo not drawn) displayed a melting point of 70 to 72 °C.

The compound `Nc1nc2ccccc2c2c1ncn2CCOCCCc1cccnc1` returned a melting point of 125 to 128 °C.

Consider `Cc1cccc(C(=O)NCN2CCN(c3ncccc3C#N)CC2)c1`, for which the melting point lay in the range of 128 to 130 °C.

Compound `NC(=S)Nc1ccccc1O` yielded a melting point of 161 °C.

Compound `Cc1cc2oc(N(N)CCC#N)nc2c(C)c1C` yielded a melting point of 143 to 144 °C.

`COc1ccc(N2CCN(c3c(C)c(C)c4c(c3C)C(O)(c3ccc(OC(F)(F)F)cc3)C(C)(C)O4)CC2)cc1` (stereo not drawn) displayed a melting point of 175 to 176 °C.

The compound `Cc1cccc(N(CCO)Cc2ccc3nc(N)n(Cc4nc(C)ccc4O)c3c2)c1` yielded a melting point of 210 °C.

Compound `CCCCc1nc(CC(NC(C)=O)(C(=O)OCC)C(=O)OCC)c[nH]1` returned a melting point of 80 to 92 °C.

In the case of `CCc1c(C(F)(F)F)nn(-c2ccc(S(N)(=O)=O)cc2)c1-c1ccc(OC)c(C)c1`, the melting point fell in the range of 135 to 136 °C.

With `C=CCNc1nc(C2C(=O)Nc3ccc(Br)cc32)c2cn(CCC)nc2n1` (stereo not drawn), the melting point lay in the range of 322 to 326 °C.

With `CCCCCCCCSc1ccc(C=Cc2ccc([N+](=O)[O-])cc2)cc1`, the melting point is 53 °C.

The compound `C=CCC1(c2ccc(Br)cc2)C2CCC(C(=O)C2)C1Nc1ccc(OC)cc1` (stereo not drawn) yielded a melting point of 68 to 69 °C.

The compound `Cn1c(=O)[nH]c(=O)c2c1ncn2CC#N` registered a melting point of 285 to 287 °C.

As for `NC(=O)Nc1ccc(-c2c[nH]c(=O)cn2)cc1`, the melting point is over 300 °C.

`Nc1ccc2oc(-c3ccccc3)cc2c1` came in with a melting point of 156 °C.

On to `CSCCN1C(=O)N2CCOC2(c2ccccc2)c2cc(Cl)ccc21` (stereo not drawn), for which the melting point lay in the range of 145 to 146 °C.

Turning to `c1cc2nnnn2cc1C1CO1` (stereo not drawn), the melting point was in the range of 108 to 110 °C.

`CCS(=O)(=O)Cc1ccc(Oc2ccc(NC(C)=O)cc2)cc1` gave a melting point of 186 °C.

In turn, `CCNc1ccc(C(=O)Nc2ccc(OC)cc2)c(NC(=O)c2ccc(C(C)(C)C)cc2)c1` returned a melting point of 205 to 208 °C.

`COCCOc1cc2c(Nc3ccc(Sc4nccn4C)c(Cl)c3)c(C#N)cnc2cc1N1CCC(N2CCCC2)CC1` registered a melting point of 238 to 241 °C.

Compound `CCc1cc(-c2nc(C)c(-c3ccnc(Nc4cccc(CNC(C)=O)c4)n3)s2)ccn1` gave a melting point of 180 to 182 °C.

In the case of `Oc1nc(-c2ncccn2)nc(O)c1-c1cccs1`, the melting point fell in the range of 244 to 246 °C.

For `CCCCCCCc1ccc(NC(=O)Nc2ccccc2C(=O)NC2CCN(C(c3ccccc3)c3ccccc3)CC2)cc1`, the melting point lay in the range of 173 to 175 °C.

Take `CC(=NNC=O)c1ccncc1Cl`: the melting point amounted to 175 °C.

Take `COc1cc(CC(=O)Nc2cnn(Cc3c(C)noc3C)c2)cc(OC)c1O`: the melting point fell in the range of 187 to 188 °C.

`FC(F)(F)c1cc(Cl)c(-n2cc(I)c(-c3ccccc3)n2)c(Cl)c1` yielded a melting point of 88 to 89 °C.

In turn, `CCN(C(=O)Cn1c(=O)n(C)c2nc(-c3ccccc3)ncc21)c1ccccc1` came in with a melting point of 240 to 242 °C.

The compound `COC(=O)c1cc(C)nc(Nc2ccc(C(C)C)cc2Br)n1` returned a melting point of 75 to 76 °C.

For the compound `O=CC(=Cc1ccc(O)cc1)C(C=O)=Cc1ccc(O)cc1`, the melting point lay within 244 to 246 °C.

The compound `COC(=O)C(=Cc1cc(OC)cc(OC)c1)c1ccc(Oc2ccc(CO)cc2)cc1` yielded a melting point of 93 to 95 °C.

Turning to `O=C1N=CNC(O)C1C(=O)Nc1ccccc1` (stereo not drawn), the melting point is 200 to 208 °C.

The compound `O=c1[nH][nH]c(=O)n1-c1c(F)cc(F)cc1F` registered a melting point of 221 to 222 °C.

Take `CCCN(CCC)NNc1nc(C(=O)c2ccccc2O)nc(C(=O)c2ccccc2O)n1`: the melting point was 254 to 255 °C.

With `N#Cc1c(N2CCN(C(=O)c3ccc4ccccc4n3)CC2)c2ccccc2n(Cc2ccc(F)cc2)c1=O`, the melting point lay within 144 to 157 °C.

In the case of `Brc1cc(Cc2ccc3ccccc3c2)cc(Br)c1OCc1nnn[nH]1`, the melting point was 183 to 184 °C.

`Nc1c(F)c(F)[nH]c(=O)c1F` gave a melting point of 199 to 201 °C.
